Results taken from ChEMBL document CHEMBL5260845, “Flavone-based arylamides as potential anticancers: Design, synthesis and in vitro cell-based/cell-free evaluations” (2020).
Calls of active or inactive are those of the source. The calls are words filed in the database; no cut-off is given here.

Tests used:
SF-295 = assay: Antiproliferative activity against human SF-295 cells assessed as cell growth inhibition at 10 uM by SRB assay relative to control; format: functional
SK-MEL-28 = assay: Antiproliferative activity against human SK-MEL-28 cells assessed as cell growth inhibition at 10 uM by SRB assay relative to control; format: functional
SK-MEL-5 = assay: Antiproliferative activity against human SK-MEL-5 cells assessed as cell growth inhibition at 10 uM by SRB assay relative to control; format: functional
Malme-3M = assay: Antiproliferative activity against human Malme-3M cells assessed as cell growth inhibition at 10 uM by SRB assay relative to control; format: functional
CCRF-CEM = assay: Antiproliferative activity against human CCRF-CEM cells assessed as cell growth inhibition at 10 uM by SRB assay; format: functional, cell-based
K562 = assay: Antiproliferative activity against human K562 cells assessed as cell growth inhibition at 10 uM by SRB assay; format: functional, cell-based
RPMI-8226 [1] = assay: Antiproliferative activity against human RPMI-8226 cells assessed as cell growth inhibition at 10 uM by SRB assay; format: functional, cell-based
SR = assay: Antiproliferative activity against human SR cells assessed as cell growth inhibition at 10 uM by SRB assay; format: functional, cell-based
A549 = assay: Antiproliferative activity against human A549 cells assessed as cell growth inhibition at 10 uM by SRB assay; format: functional, cell-based
HOP-62 = assay: Antiproliferative activity against human HOP-62 cells assessed as cell growth inhibition at 10 uM by SRB assay; format: functional, cell-based
NCI-H226 = assay: Antiproliferative activity against human NCI-H226 cells assessed as cell growth inhibition at 10 uM by SRB assay; format: functional
NCI-H23 = assay: Antiproliferative activity against human NCI-H23 cells assessed as cell growth inhibition at 10 uM by SRB assay; format: functional
NCI-H460 = assay: Antiproliferative activity against human NCI-H460 cells assessed as cell growth inhibition at 10 uM by SRB assay; format: functional, cell-based
NCI-H522 [2] = assay: Antiproliferative activity against human NCI-H522 cells assessed as cell growth inhibition at 10 uM by SRB assay; format: functional, cell-based
NCI-H522 [3] = assay: Antiproliferative activity against human NCI-H522 cells assessed as cell growth inhibition at 10 uM by SRB assay relative to control; format: functional
COLO 205 [4] = assay: Antiproliferative activity against human COLO 205 cells assessed as cell growth inhibition at 10 uM by SRB assay relative to control; format: functional
HCC 2998 [5] = assay: Antiproliferative activity against human HCC 2998 cells assessed as cell growth inhibition at 10 uM by SRB assay relative to control; format: functional
COLO 205 [6] = assay: Antiproliferative activity against human COLO 205 cells assessed as cell growth inhibition at 10 uM by SRB assay; format: functional, cell-based
HCC 2998 [7] = assay: Antiproliferative activity against human HCC 2998 cells assessed as cell growth inhibition at 10 uM by SRB assay; format: functional, cell-based
HCT-116 = assay: Antiproliferative activity against human HCT-116 cells assessed as cell growth inhibition at 10 uM by SRB assay; format: functional, cell-based
HCT-15 = assay: Antiproliferative activity against human HCT-15 cells assessed as cell growth inhibition at 10 uM by SRB assay; format: functional, cell-based
HT-29 = assay: Antiproliferative activity against human HT-29 cells assessed as cell growth inhibition at 10 uM by SRB assay; format: functional, cell-based
KM12 = assay: Antiproliferative activity against human KM12 cells assessed as cell growth inhibition at 10 uM by SRB assay; format: functional, cell-based
SW-620 = assay: Antiproliferative activity against human SW620 cells assessed as cell growth inhibition at 10 uM by SRB assay; format: functional, cell-based
U-251 = assay: Antiproliferative activity against human U-251 cells assessed as cell growth inhibition at 10 uM by SRB assay relative to control; format: functional
SF-539 = assay: Antiproliferative activity against human SF-539 cells assessed as cell growth inhibition at 10 uM by SRB assay relative to control; format: functional
UACC-257 = assay: Antiproliferative activity against human UACC-257 cells assessed as cell growth inhibition at 10 uM by SRB assay relative to control; format: functional
UACC-62 = assay: Antiproliferative activity against human UACC-62 cells assessed as cell growth inhibition at 10 uM by SRB assay relative to control; format: functional
LOX IMVI = assay: Antiproliferative activity against human LOX IMVI cells assessed as cell growth inhibition at 10 uM by SRB assay relative to control; format: functional
MDA-MB-435 = assay: Antiproliferative activity against human MDA-MB-435 cells assessed as cell growth inhibition at 10 uM by SRB assay relative to control; format: functional
OVCAR-8 = assay: Antiproliferative activity against human OVCAR-8 cells assessed as cell growth inhibition at 10 uM by SRB assay relative to control; format: functional
OVCAR-3 = assay: Antiproliferative activity against human OVCAR-3 cells assessed as cell growth inhibition at 10 uM by SRB assay relative to control; format: functional; conditions: pooled result: one value given for 2 cell lines, strains, targets or settings
IGROV-1 = assay: Antiproliferative activity against human IGROV-1 cells assessed as cell growth inhibition at 10 uM by SRB assay relative to control; format: functional
786-0 = assay: Antiproliferative activity against human 786-0 cells assessed as inhibition of cell growth at 10 uM by SRB assay relative to control; format: functional
RXF 393 = assay: Antiproliferative activity against human RXF 393 cells assessed as inhibition of cell growth at 10 uM by SRB assay relative to control; format: functional
SN12C = assay: Antiproliferative activity against human SN12C cells assessed as inhibition of cell growth at 10 uM by SRB assay relative to control; format: functional
CAKI-1 = assay: Antiproliferative activity against human CAKI-1 cells assessed as inhibition of cell growth at 10 uM by SRB assay relative to control; format: functional
DU-145 = assay: Antiproliferative activity against human DU-145 cells assessed as inhibition of cell growth at 10 uM by SRB assay; format: functional, cell-based
Melanoma cell line = assay: Antiproliferative activity against human melanoma cells assessed as cell growth inhibition at 10 uM by SRB assay relative to control; format: functional
[8] = Antiproliferative activity against human hematologic cancer cells assessed as cell growth inhibition at 10 uM by SRB assay relative to control; format: functional
[9] = Antiproliferative activity against human colon cancer cells assessed as cell growth inhibition at 10 uM by SRB assay relative to control; format: functional; conditions: Colon carcinoma cell
Breast carcinoma cell = assay: Antiproliferative activity against human breast cancer cells assessed as cell growth inhibition at 10 uM by SRB assay relative to control; format: functional; conditions: pooled result: one value given for 3 cell lines, strains, targets or settings
[10] = Antiproliferative activity against human brain cancer cells assessed as cell growth inhibition at 10 uM by SRB assay relative to control; format: functional
RPMI-8226 [11] = assay: Antiproliferative activity against human RPMI-8226 cells assessed as cell growth inhibition by SRB assay; format: functional

## COc1cc2oc(-c3cccc(C(=O)Nc4ccc(Cl)cc4)c3)cc(=O)c2c(OC)c1OC
SF-295
  inhibition at 10 µM: 142%
SK-MEL-28
  inhibition at 10 µM: 107%
SK-MEL-5
  inhibition at 10 µM: 107%
Malme-3M
  inhibition at 10 µM: 85.8%
CCRF-CEM
  inhibition: Active
K562
  inhibition: Active
RPMI-8226 [1]
  inhibition: Active
SR
  inhibition: Active
A549
  inhibition: Active
HOP-62
  inhibition: Active
NCI-H226
  inhibition: Active
NCI-H23
  inhibition: Active
NCI-H460
  inhibition: Active
NCI-H522 [2]
  inhibition: Active
NCI-H522 [3]
  inhibition at 10 µM: 74.8%
COLO 205 [4]
  inhibition at 10 µM: 98.3%
HCC 2998 [5]
  inhibition at 10 µM: 77.4%
COLO 205 [6]
  inhibition: Active
HCC 2998 [7]
  inhibition: Active
HCT-116
  inhibition: Active
HCT-15
  inhibition: Active
HT-29
  inhibition: Active
KM12
  inhibition: Active
SW-620
  inhibition: Active
U-251
  inhibition at 10 µM: > 50%
SF-539
  inhibition at 10 µM: > 50%
UACC-257
  inhibition at 10 µM: 107%
UACC-62
  inhibition at 10 µM: 107%
LOX IMVI
  inhibition at 10 µM: 97.8%
MDA-MB-435
  inhibition at 10 µM: 62.5%
OVCAR-8
  inhibition at 10 µM: 56.9%
OVCAR-3
  inhibition at 10 µM: 56.9%
IGROV-1
  inhibition at 10 µM: 56.9%
786-0
  inhibition at 10 µM: 88%
RXF 393
  inhibition at 10 µM: 129%
SN12C
  inhibition at 10 µM: 61.4%
CAKI-1
  inhibition at 10 µM: 91.8%
DU-145
  inhibition: Active
Melanoma cell line
  inhibition at 10 µM: 102%
[8]
  inhibition at 10 µM: 90%
[9]
  inhibition at 10 µM: 61.5%
Breast carcinoma cell
  inhibition at 10 µM: 61.5%
[10]
  inhibition at 10 µM: 61.5%
RPMI-8226 [11]
  GI50: 490 nM
